From patent publication US20260294857A1, “TREATMENT OF HYPOPARATHYROIDISM USING TRIPHENYL CALCILYTIC COMPOUNDS” (CALCILYTIX THERAPEUTICS, INC., priority 2023, published 2026)

Columns and labels:
[1] = thiazide discontinuation before treatment; cited from earlier work
[2] = biological target: T1, calcium-sensing receptor (CaSR) (Homo sapiens, UniProt P41180); test: Ongoing open-label phase 2 proof-of-principle study in women with post-surgical hypoparathyroidism (PSH), NCT05735015; assay type: in vivo
T1 construct: oral CLTX-305 (encaleret) in post-surgical hypoparathyroidism subjects; clinical safety and blood calcium endpoints
T1 sequence (P41180 20-1078): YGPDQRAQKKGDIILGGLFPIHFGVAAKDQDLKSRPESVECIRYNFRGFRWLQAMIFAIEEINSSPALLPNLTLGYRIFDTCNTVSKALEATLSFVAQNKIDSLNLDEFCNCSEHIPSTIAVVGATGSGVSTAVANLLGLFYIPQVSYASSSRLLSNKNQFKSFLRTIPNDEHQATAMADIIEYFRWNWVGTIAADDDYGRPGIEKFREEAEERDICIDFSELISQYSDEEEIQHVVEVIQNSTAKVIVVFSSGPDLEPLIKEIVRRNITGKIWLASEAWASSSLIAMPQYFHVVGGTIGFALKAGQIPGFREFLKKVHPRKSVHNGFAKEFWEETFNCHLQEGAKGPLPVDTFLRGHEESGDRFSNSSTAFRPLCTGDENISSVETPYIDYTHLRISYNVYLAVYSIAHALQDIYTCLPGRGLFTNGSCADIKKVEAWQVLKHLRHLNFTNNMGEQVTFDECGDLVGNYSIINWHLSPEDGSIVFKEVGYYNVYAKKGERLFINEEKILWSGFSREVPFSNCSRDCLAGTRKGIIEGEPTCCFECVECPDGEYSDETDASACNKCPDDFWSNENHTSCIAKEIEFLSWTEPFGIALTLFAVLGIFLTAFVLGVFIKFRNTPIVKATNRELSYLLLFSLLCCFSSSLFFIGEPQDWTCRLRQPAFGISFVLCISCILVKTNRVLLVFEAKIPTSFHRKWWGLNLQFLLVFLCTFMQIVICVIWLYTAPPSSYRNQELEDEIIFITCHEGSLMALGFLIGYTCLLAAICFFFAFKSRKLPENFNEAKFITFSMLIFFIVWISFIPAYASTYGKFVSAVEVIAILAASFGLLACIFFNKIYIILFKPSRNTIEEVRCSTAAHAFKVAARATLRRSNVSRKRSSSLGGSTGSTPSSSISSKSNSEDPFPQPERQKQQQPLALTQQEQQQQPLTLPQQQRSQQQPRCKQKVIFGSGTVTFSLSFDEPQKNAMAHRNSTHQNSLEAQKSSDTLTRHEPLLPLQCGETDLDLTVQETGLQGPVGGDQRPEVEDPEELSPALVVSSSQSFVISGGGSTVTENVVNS
Source text: Title: Phase 2 study of the PTH-independent Effects of formula (I) (e.g., CLTX-305) on Mineral Homeostasis in subjects with post-surgical hypoparathyroidism (PSH).
Study Description: This will be a single-site, proof-of-principle, open-label study to explore the PTH-independent effects of formula (I) (e.g., CLTX-305) on calcium homeostasis in subjects with low or undetectable PTH levels as a result of neck surgery (PSH).
Primary Endpoint: Percent change in Fractional Excretion of Calcium (FECa) from baseline (Day −1) to the final day of treatment (Day 6 or the last measurement while on formula (I) (e.g., CLTX-305)). FECa calculated using fasting blood levels and spot urine collection.
Secondary Endpoints: Proportion of subjects who achieve a concomitant normal fasting blood calcium (albumin-corrected calcium >8.5 mg/dL) and a normal 24-hour urinary calcium level (<250 mg/24 hours for women, <300 mg/24 hours for men) on formula (I) (e.g., CLTX-305) at any point between day 1 and day 5.
• Change in blood iPTH comparing average baseline iPTH to average peak iPTH on formula (I) (e.g., CLTX-305). The average baseline iPTH will include all baseline iPTH levels from the screening visit, Day −1, and pre-dose on Day 1. The average peak iPTH will average the peak iPTH levels on every day the subject is on formula (I) (e.g., CLTX-305) (days 1 to 5). An increase in iPTH will be considered clinically significant if there is an increase both by 50% AND by more than […]. • Change in 1,25-(OH)2 Vitamin D on formula (I) (e.g., CLTX-305) comparing the maximal level prior to receiving calcitriol (On Days 3-5) to baseline (Average of Day 1 Pre-dose levels). Increase will be considered significant if there is an increase of more than 50%. Subjects who receive calcitriol prior to Day 3 will be excluded. • Percent change in Fractional Excretion of Calcium (FECa) from baseline […] to the final day of treatment (Day 6 or the last measurement while n encaleret). FECa calculated using fasting blood levels and spot urine collection. • Pharmacodynamic endpoints measured over 5 days of formula (I) (e.g., CLTX-305) therapy: • Blood iPTH—Absolute levels and change from baseline • Albumin-corrected blood calcium—Absolute levels and change from baseline • Ionized Calcium—Absolute levels and change from baseline • Urinary calcium clearance (fractional excretion and 24-hour total excretion)—Absolute levels and change from baseline • Serum levels of 1,25-(OH)2 Vitamin D—Absolute levels and change from baseline • Blood intact FGF23 (iFGF23) and C-terminal FGF23 (cFGF23)—Absolute levels and change from baseline • Urine cAMP and citrate—Absolute levels and change from baseline • Blood bone resorption marker, collagen cross-linked C-telopeptide (CTx)—Absolute levels and change from baseline • Blood bone formation marker, blood procollagen type 1 N-propeptide (P1NP)—Absolute levels and change from baseline • Change in components of urine including: supersaturation, sodium, potassium, calcium, magnesium, chloride, phosphorus, sulfate, citrate excretion, oxalate, pH, uric acid, creatinine, osmolality, ammonium, urea nitrogen, protein catabolic rate • PK parameters such as maximum plasma concentration Cmax), time to maximum plasma concentration (tmax), apparent terminal half-life (t½) • Subgroup analysis of other primary, secondary, and tertiary endpoints
Intervention: CLTX-305 will be provided as an oral film-coated tablet. Each tablet contains 54 mg of formula (I) on a salt-free and anhydrous basis (i.e., 60 mg of CLTX-305). Subjects will receive 3 tablets twice a day (BID).
The investigational medicinal product (IMP), formula (I) (e.g., CLTX-305), will be provided as film-coated tablets containing the active ingredient formula (I) on a salt-free and anhydrous basis provided in 54 mg dosage strength. Subjects will receive active ingredient formula (I) 162 mg (i.e., 180 mg CLTX-305) (3 tablets) BID per protocol with water. […]

osteoporosis = conditions: late phase trials; postmenopausal women with osteoporosis; cited from earlier work
[3] = tested on: calcium-sensing receptor (CaSR); conditions: individuals with functioning parathyroid tissue; calcilytics (e.g., CLTX-305); cited from earlier work

SMILES: NS(=O)(=O)c1cc2c(cc1Cl)N=CNS2(=O)=O [chlorothiazide]
- 5 half-lives [1]: 10 h

SMILES: NS(=O)(=O)c1cc2c(cc1Cl)NCNS2(=O)=O [hydrochlorothiazide]
- 5 half-lives [1]: 75 h

SMILES: NS(=O)(=O)c1cc(C2(O)NC(=O)c3ccccc32)ccc1Cl (stereo not shown) [chlorthalidone]
- 5 half-lives [1]: 300 h

SMILES: Cc1cc(-c2ccccc2[C@@H](C)OC[C@H](O)CNC(C)(C)Cc2ccc(Cl)c(F)c2)ccc1C(=O)O [CLTX-305]
- PTH after transient increase ([2]; after the 30 minutes increase, baseline 7.4 pg/mL, n=4): returned to near baseline levels
- FECa, effect in words ([2]; first four participants with PSH): reduced FECa
- Serious adverse events ([2]; four women with PSH): no serious adverse events reported
- Treatment-related adverse events (AEs) ([2]; four women with PSH): mild hypercalcemia causing headache in 1 participant
- Bone turnover markers ([2]; four women with PSH, 162 mg every 12 hours, up to 10 doses): normal and did not change
- PTH, transient increase ([2]; mean (range), 30 minutes after the first dose, baseline 7.4 pg/mL (range 4.6-10.1; nl 15-65), n=4): 13.0 (4.5-18.1) pg/mL
- Decrease in fractional excretion of calcium (FECa) ([2]; mean (range), fasting, 12 hours after last dose vs fasting baseline pre-dose, four women with PSH, CLTX-305 162 mg every 12 hours for up to 10 doses): 52% (34-78)
- Albumin-corrected blood calcium ([2]; mean (range), fasting, 12 hours after last dose, baseline 8.4 mg/dL (range 8.1-8.6; nl 8.4-10.2), 162 mg every 12 hours, up to 10 doses, n=4): 9.3 (8.6-10.7) mg/dL
- Urinary calcium excretion ([2]; mean (range), on treatment, baseline 348 mg/day (range 204-501; nl<250), 162 mg every 12 hours, up to 10 doses, n=4): 169 (76-350) mg/day
- Participants who discontinued calcium supplementation to maintain eucalcemia ([2]; of four women with PSH, all received calcium supplementation initially): 1 participant
- Participants who required re-initiation of low-dose calcitriol to maintain eucalcemia ([2]; of four women with PSH, calcitriol 0.25 mcg daily): 3
- Normalization of urinary calcium excretion ([2]; of four women with PSH, nl<250 mg/day): 3 participants
- 24-hour urine calcium despite elevated blood calcium ([2]; one participant with mild hypercalcemia): < 200 mg/day
- Time for which blood calcium continued to be mildly elevated after the last dose ([2]; one participant with mild hypercalcemia, calcium and calcitriol supplementation discontinued): 60 h
- Decrease in urinary calcium excretion in the fourth participant ([2]; one participant without normalization, 162 mg every 12 hours, up to 10 doses): 30%
- Bone mineral density (BMD) efficacy (osteoporosis): failed to demonstrate efficacy on endpoints of bone mineral density (BMD)
- Blood calcium levels, in words [3]: increased blood calcium levels
- PTH secretion [3]: increase PTH secretion
- Urinary calcium excretion, in words [3]: decrease urinary calcium excretion
